The source of these data is patent US11713338B2, “Cyclic peptides multimers targeting α-4-β-7 integrin” (priority 2016, dated 2023).

Assay [1] deals with T1, recombinant integrin α4β1 (Homo sapiens, UniProt P05556+P13612).
T1 construct: purchased R&D Systems 5397-A3-050
As to the kind of experiment: Integrin α4β1—VCAM-1 competition ELISA. Type of assay: binding. The settings on record: read-out: ELISA a4b1 Assay IC50. On the procedure:
Integrin α4β1—VCAM-1 Competition ELISA
The plate was incubated at 4° C. overnight. […] The plate was then incubated for 1 hour at room temperature. The plate was washed three times with wash buffer (50 mM Tris, 100 mM NaCl, 1 mM MnCl2, 0.05% Tween). To each well, 50 μl of compound diluted in assay buffer was added by transfer from a compound serial dilution plate. […] The plate was incubated at room temperature with shaking (300 rpm) for 2 hours to reach binding equilibrium. Then the plate was washed three times in wash buffer and 100 μl anti-human IgG Fc specific-HRP (Abcam, Ab97225) diluted at 1:2000 in assay buffer was added to each well. The plate was incubated at room temperature for 1 hour under agitation.

In assay [2] the target is T2, recombinant integrin α4β7 (Homo sapiens, UniProt P13612+P26010, DEL724-798).
T2 construct: purchased R&D Systems 5397-A3-050
T2 sequence (P13612 34-970 limits assumed): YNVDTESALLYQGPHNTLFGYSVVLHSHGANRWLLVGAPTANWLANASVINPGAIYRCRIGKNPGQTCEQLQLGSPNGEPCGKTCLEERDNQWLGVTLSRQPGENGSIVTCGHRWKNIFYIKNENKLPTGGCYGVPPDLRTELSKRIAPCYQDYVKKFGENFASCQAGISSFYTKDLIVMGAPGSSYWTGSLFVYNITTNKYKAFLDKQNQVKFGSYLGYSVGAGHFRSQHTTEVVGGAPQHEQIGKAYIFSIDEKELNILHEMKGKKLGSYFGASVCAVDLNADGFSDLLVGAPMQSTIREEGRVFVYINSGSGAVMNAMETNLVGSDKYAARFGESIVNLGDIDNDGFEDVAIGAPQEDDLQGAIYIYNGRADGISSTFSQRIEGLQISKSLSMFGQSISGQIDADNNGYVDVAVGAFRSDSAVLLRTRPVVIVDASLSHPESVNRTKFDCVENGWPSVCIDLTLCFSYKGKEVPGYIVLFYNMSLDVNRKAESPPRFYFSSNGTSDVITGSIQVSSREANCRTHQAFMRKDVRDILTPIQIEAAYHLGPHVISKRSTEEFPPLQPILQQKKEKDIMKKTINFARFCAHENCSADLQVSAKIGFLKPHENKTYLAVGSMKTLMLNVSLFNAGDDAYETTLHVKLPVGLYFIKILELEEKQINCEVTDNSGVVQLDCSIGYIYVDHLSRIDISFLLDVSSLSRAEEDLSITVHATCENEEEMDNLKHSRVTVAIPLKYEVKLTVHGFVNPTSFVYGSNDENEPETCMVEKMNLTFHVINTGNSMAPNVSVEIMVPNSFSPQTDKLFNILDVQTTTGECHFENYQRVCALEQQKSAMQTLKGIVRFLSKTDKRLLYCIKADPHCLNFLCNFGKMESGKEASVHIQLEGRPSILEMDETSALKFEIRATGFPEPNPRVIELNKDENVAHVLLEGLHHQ
T2 sequence (P26010 20-723 limits assumed): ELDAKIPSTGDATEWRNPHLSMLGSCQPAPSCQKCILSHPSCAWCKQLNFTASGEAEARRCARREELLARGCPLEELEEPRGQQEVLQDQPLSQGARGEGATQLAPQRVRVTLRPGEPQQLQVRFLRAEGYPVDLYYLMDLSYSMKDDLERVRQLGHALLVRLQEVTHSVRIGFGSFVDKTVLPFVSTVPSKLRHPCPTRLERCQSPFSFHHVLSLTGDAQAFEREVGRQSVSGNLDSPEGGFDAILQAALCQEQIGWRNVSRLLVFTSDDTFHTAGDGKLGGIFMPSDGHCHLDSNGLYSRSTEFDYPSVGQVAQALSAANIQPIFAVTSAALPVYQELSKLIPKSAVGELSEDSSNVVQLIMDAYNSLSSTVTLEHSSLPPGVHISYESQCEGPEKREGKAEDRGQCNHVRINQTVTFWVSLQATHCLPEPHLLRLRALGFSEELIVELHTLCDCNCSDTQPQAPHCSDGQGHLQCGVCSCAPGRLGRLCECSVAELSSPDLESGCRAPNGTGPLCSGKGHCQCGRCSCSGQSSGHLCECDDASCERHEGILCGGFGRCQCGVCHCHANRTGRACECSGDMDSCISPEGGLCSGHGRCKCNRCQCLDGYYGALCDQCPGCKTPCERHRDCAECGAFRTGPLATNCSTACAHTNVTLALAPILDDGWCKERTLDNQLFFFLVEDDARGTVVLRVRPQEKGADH
The assay is described as follows: Integrin α4β7—MAdCAM-1 ELISA competition assay. It counts as binding. The following applies: for ELISA Assay Ratio b1/b7: ratio of a4b1 to a4b7 ELISA IC50; for IC50: read-out: ELISA a4b7 Assay IC50.

Structures are written as SMILES.

T1 sequence (P05556 21-728 limits assumed, one chain of several): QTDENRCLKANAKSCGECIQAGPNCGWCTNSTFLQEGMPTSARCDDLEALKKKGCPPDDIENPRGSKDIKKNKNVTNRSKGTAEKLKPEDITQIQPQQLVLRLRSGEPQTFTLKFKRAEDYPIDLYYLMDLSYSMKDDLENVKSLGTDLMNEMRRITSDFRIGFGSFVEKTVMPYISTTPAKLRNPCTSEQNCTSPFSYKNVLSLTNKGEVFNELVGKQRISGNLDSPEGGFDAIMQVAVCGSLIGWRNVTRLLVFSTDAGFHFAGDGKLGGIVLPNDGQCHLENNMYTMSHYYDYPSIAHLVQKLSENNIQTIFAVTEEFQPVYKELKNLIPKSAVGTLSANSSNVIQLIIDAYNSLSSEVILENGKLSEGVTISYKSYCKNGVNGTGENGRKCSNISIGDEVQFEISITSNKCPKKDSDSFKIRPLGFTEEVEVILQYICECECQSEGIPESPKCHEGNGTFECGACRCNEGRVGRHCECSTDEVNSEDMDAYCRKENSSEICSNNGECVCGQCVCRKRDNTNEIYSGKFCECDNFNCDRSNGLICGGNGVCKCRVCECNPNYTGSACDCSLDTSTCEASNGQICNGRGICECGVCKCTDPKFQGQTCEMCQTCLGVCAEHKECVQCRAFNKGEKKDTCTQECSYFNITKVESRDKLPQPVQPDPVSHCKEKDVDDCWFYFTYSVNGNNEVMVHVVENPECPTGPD

For the compound `CC[C@H](C)[C@@H]1NC(=O)[C@H](CC(=O)O)NC(=O)[C@H](CC(C)C)NC(=O)C[C@H](CCCCN)NC(=O)[C@@H](Cc2ccc(CN)cc2)NC(=O)[C@@H]2CCCN2[C@H](C(=O)NC(C)(C)C)[C@H](C)NC1=O` [Compound 253], in assay [1], the IC50 came out at 1090 nM. Also, in assay [2], the “ELISA Assay Ratio b1/b7” value is listed as 15.6 and the IC50 was 69 nM.

In the case of `CC(C)C[C@@H]1NC(=O)c2ccc(-c3ccccc3N3CCNCC3)c(c2)CNC(=O)[C@@H]2CCCN2[C@H](C(=O)NC(C)(C)C)[C@H](C)NC(=O)[C@H]([C@@H](C)O)NC(=O)[C@H](CC(=O)O)NC1=O` [Compound 348], the IC50 is 41 nM in assay [1] and 27 nM in assay [2]. For the same compound, the “ELISA Assay Ratio b1/b7” value in assay [2] is recorded as 1.5.

Consider `CC(C)C[C@@H]1NC(=O)[C@H](Cc2csc(-c3ccncc3)n2)NC(=O)[C@@H]2CCCN2[C@H](C(=O)NC(C)(C)C)[C@H](C)NC(=O)[C@H]([C@@H](C)O)NC(=O)[C@H](CC(=O)O)NC1=O` [Compound 97], for which the IC50 in assay [1] amounted to 311 nM. For the same compound, in assay [2], the “ELISA Assay Ratio b1/b7” value came out at 2.5 and the 50% inhibitory concentration (IC50) amounted to 124 nM.

In the case of `CC(C)C[C@@H]1NC(=O)C[C@H](CCCCN)NC[C@H](Cc2ccc(CN)cc2)NC(=O)[C@@H]2CCCN2[C@H](C(=O)NC(C)(C)C)[C@H](C)NC(=O)[C@H]([C@@H](C)O)NC(=O)[C@H](CC(=O)O)NC1=O` [Compound 218], the IC50 is 3130 nM in assay [1] and 190 nM in assay [2]. The “ELISA Assay Ratio b1/b7” value in assay [2] is recorded as 16.5.

As to `COc1ccc(C[C@@H]2NC(=O)[C@@H]3CCCN3[C@H](C(=O)NC(C)(C)C)[C@H](C)NC(=O)[C@H]([C@@H](C)O)NC(=O)[C@H](CC(=O)O)NC(=O)[C@H](CC(C)C)NC(=O)[C@H]3CCCN3C2=O)cc1OC` [Compound 127], the IC50 in assay [1] is 196 nM. In assay [2], the “ELISA Assay Ratio b1/b7” value was 7.8 and the IC50 was 25 nM.

Regarding `CC(C)C[C@@H]1NC(=O)[C@H]2CCCCN2C(=O)[C@H](Cc2ccc(-c3ccccc3)cc2)NC(=O)[C@@H]2CCCN2[C@H](C(=O)NC(C)(C)C)[C@H](C)NC(=O)[C@H]([C@@H](C)O)NC(=O)[C@H](CC(=O)O)NC1=O` [Compound 138], the IC50 came to 118 nM in assay [1] and 24 nM in assay [2]. Moreover, the “ELISA Assay Ratio b1/b7” value in assay [2] stood at 5.0.

As to `CC(C)C[C@@H]1NC(=O)C[C@H](CCCCN)NC(=O)CN(Cc2ccccc2)C(=O)[C@@H]2CCCN2[C@H](C(=O)NC(C)(C)C)[C@H](C)NC(=O)[C@H]([C@@H](C)O)NC(=O)[C@H](CC(=O)O)NC1=O` [Compound 296], the IC50 in assay [1] stood at 14700 nM. Besides, the “ELISA Assay Ratio b1/b7” value in assay [2] is 94.8.

With `C[C@@H]1NC(=O)[C@H]([C@@H](C)O)NC(=O)[C@H](CC(=O)O)NC(=O)[C@H](CC(C)(C)C)NC(=O)[C@H]2CCCCN2C(=O)[C@H](Cc2ccc(O)cc2)NC(=O)[C@@H]2CCCN2[C@@H]1C(=O)NC(C)(C)C` [Compound 150], the 50% inhibitory concentration (IC50) in assay [1] was 447 nM. Further, in assay [2], the “ELISA Assay Ratio b1/b7” value was 8.2 and the IC50 worked out at 54 nM.

For `CC(C)C[C@@H]1NC(=O)[C@H]2CCCCN2C(=O)[C@H](Cc2ccccc2I)NC(=O)[C@@H]2CCCN2[C@H](C(=O)NC(C)(C)C)[C@H](C)NC(=O)[C@H]([C@@H](C)O)NC(=O)[C@H](CC(=O)O)NC1=O` [Compound 133], the concentration for half-maximal inhibition (IC50) in assay [1] stood at 80 nM. Further, in assay [2], the “ELISA Assay Ratio b1/b7” value was 5.3 and the IC50 worked out at 15 nM.

As for `CC(C)C[C@@H]1NC(=O)[C@H]2CCCCN2C(=O)[C@H](Cc2cccc3ccccc23)NC(=O)[C@@H]2CCCN2[C@H](C(=O)NC(C)(C)C)[C@H](C)NC(=O)[C@H]([C@@H](C)O)NC(=O)[C@H](CC(=O)O)NC1=O` [Compound 143], the IC50 in assay [1] is 68 nM. In addition, in assay [2], the “ELISA Assay Ratio b1/b7” value is 2.1 and the IC50 amounted to 33 nM.

As to `CC(C)C[C@@H]1NC(=O)[C@@H](CCCCN)NC(=O)[C@H](Cc2ccc(-c3ccccc3)cc2)NC(=O)[C@@H]2CCCN2[C@H](C(=O)NC(C)(C)C)[C@H](C)NC(=O)[C@H]([C@@H](C)O)NC(=O)[C@H](CC(=O)O)NC1=O` [Compound 110], the IC50 in assay [1] worked out at 3920 nM. For the same compound, in assay [2], the “ELISA Assay Ratio b1/b7” value is 21.3 and the IC50 is 185 nM.
